A short description of one data set: Rheology of hydrogels. The format is physicochemical. To be noted: 1% hydrogel, 37 °C. As for the experimental part: Rheological parameters of the hydrogels were identified using an MCR 302 rheometer (Anton Paar GmbH, Graz, Austria). The rheometer was equipped with a CP50-1 stainless steel cone-and-plate system of 50 mm diameter, 1° cone angle and 50 µm cone truncation and a Peltier controlled temperature unit. An aliquot of 900 µL of 1% hydrogel was applied to a plate cone. The linear viscoelastic (LVE) region was determined through an amplitude sweeps: shear strain (0.01–100% at 6 rad s^−1) and shear stress (0.001–10 Pa at 6.28 rad s^−1). Frequency sweep were measured from 0.01 to 100 rad s^−1 at 2.5% strain. The frequency dependence of the storage modulus (G’) and loss modulus (G”) of the hydrogels were measured at 37 °C. All experiments were carried out in triplicate and reported as the mean of three repeats.

Data set [1] can be described thus: Circular dichroism, conformation and thermal stability of β-sheet. Format: physicochemical. The protocol: The molar ellipticity of peptides were registered on a Jasco J-815 spectrometer (JASCO, Easton, MD, USA). Solutions of peptide hybrids were prepared in water solution (10 mg/ml), incubated at 37 °C for 4 h and then diluted to a final concentration of 0.20 mg/ml. CD spectra measurements were performed at 25 °C, 30 °C, 35 °C, 40 °C, 45 °C, 50 °C, 55 °C and 60 °C, at 190–260 nm wavelength and at a scan speed of […]. The background of the solvent was subtracted. The results are presented as the relationship of mean residue molar ellipticity (MRME) [deg × cm^2 × dmol^−1] to wavelength [nm]. Measurements were performed in triplicate. In order to determine the peptides’ denaturation temperatures, the molar ellipticity rotatory angle at a fixed wavelength of 196 nm, [θ]196, was measured as a function of temperature (max 100 °C). CD temperature measurements were carried out up to a temperature of 100 °C. Above this temperature, the cure was extrapolated with GraphPad Prism 8 software using the 4PL curve fit function. The denaturation temperature was determined as the temperature at which the change in ellipticity (θ) was half complete.

A further data set concerns 46BR.1N fibroblasts. In words: LDH cytotoxicity assay, 46BR.1N. The format is cell-based, human. Conditions: 150 µg/ml, 48 h, 3 independent experiments, n = 12. The protocol: Human HaCaT keratinocytes (DKFZ, Heidelberg, Germany)[47],[48], the human dermal fibroblast 46BR.1N cell line (ECACC, Sigma Aldrich Co.) and human primary dermal fibroblasts used in this study were routinely cultured in culture flasks (growth surface area: 25 cm^2) in DMEM-HG medium supplemented with 10% fetal bovine serum, 100 U/mL penicillin and […] streptomycin under standard conditions.
Briefly, the HaCaT and 46BR.1N cells were seeded in 96-well plates at a density of 5000 per well. Cell stimulation with RADA derivatives was performed using a protocol described before[49],[50]. Both assays were performed according to the manufacturers’ instructions (XTT- Roche, Cat. No. 11465015001; LDH- Takara, Cat. No. MK401).

The target in data set [2] is T1, Human neutrophil elastase (Homo sapiens, UniProt P08246).
T1 construct: purchased Sigma-Aldrich
T1 sequence (P08246 30-267): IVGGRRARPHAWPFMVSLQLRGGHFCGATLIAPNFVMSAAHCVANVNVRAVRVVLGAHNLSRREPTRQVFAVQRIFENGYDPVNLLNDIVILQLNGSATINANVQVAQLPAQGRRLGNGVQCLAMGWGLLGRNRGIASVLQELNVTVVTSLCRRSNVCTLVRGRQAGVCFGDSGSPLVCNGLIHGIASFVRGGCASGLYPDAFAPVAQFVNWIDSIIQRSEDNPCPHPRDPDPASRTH
As to the kind of experiment: Elastase enzymatic cleavage. To be noted: human neutrophil elastase 150 nM, peptide 1 mM, 30 min, 37 °C; for identified fragments of peptides after elastase digestion (most abundant MS signals): 300 rpm, 0.1 M Tris HCl, 500 mM NaCl, 0.05% Triton X-100, 20 mM CaCl2 pH 7.5, HPLC and MALDI or LC-MS. The format is in vitro ADME. The protocol: Human neutrophil elastase (EC No. 3.4.21.37, Sigma-Aldrich) was used to study peptide susceptibility to that enzyme. Peptides were dissolved in 0.1 M Tris HCl, 500 mM NaCl, 0.05% Triton X-100, 20 mM CaCl2 pH 7.5 buffer mixture. Peptides (final concentration 1 mM) were mixed with the enzyme (final concentration 150 nM) and incubated for 30 min. in a thermoshaker (37 °C, 300 rpm). The reaction was stopped by a 10% aqueous solution of TFA. The results were analyzed using HPLC and MALDI or LC–MS. Details of this experiment are described in the Supplementary Data.

In data set [3] the test system is full-thickness excisional dorsal skin wounds. As to the kind of experiment: Skin wound healing model in mice. Format: in vivo, BALB/c mice. The protocol:
Eight to ten-week-old BALB/c female mice were used for these experiments. All experimental procedures were approved by the Local Ethics Committee for Animal Experimentation in Bydgoszcz, Poland (Approval No. 49/2016). The study was conducted in compliance with the ARRIVE gudidelines. All animal handling methods were carried out in accordance with European Union Commission Recommendation of 18 June 2007 on guidelines for the accommodation and care of animals used for experimental and other scientific purposes. Before experiments, mice were randomized and divided into groups comprising six individuals. The mice were anaesthetized with inhaled 2–5% isoflurane. The skin on the dorsum was shaved and disinfected. After the skin was folded and raised cranially and caudally along the spine, the mouse was placed in a lateral position, and the folded skin was pierced with a 6.0 mm biopsy punch to make two through-and-through symmetrical wounds. Next, 10 µL of peptide hybrid hydrogel was applied onto each wound. Every gel was prepared in sterile conditions in biological safety cabinet, using sterile water to final concentration of 10 mg/ml (1%). Then the gels were incubated for 24 h allowing it to assemble. Control mice were treated with RADA16-I. The wounds were covered with a transparent Tegaderm TM dressing to protect the wound from outer environment of the cage and other animals. It was fastened with an adhesive plaster wrapped around the animal’s torso. The peptide hybrids were applied daily to the wounds for five consecutive days. The dressings were replaced daily in the first five days of the experiment and every second day until the end of the second week of the experiment. To measure the wound areas the wounds were photographed with a ruler placed next to the injury site. Wound areas were calculated using the computer-assisted image analysis program ImageJ[51].

Data set [4] in a line: Transmission electron microscopy of nanofibres. Format: physicochemical. Conditions: 1% gel in PBS diluted to 0.001%, uranyl acetate stain. The protocol: 1% gel solutions were prepared and incubated in PBS. The samples were then diluted to 0.001% concentration. A drop of solution was applied to a microcellulose membrane and stained with a 1.5% solution of uranyl acetate. The images were registered on a Tecnai Spirit BioTwin FEI Transmission Electron Microscope operating at 120 kV.

For `CC(=O)N[C@@H](CCCNC(=N)N)C(=O)N[C@@H](C)C(=O)N[C@@H](CC(=O)O)C(=O)N[C@@H](C)C(=O)N[C@@H](CCCNC(=N)N)C(=O)N[C@@H](C)C(=O)N[C@@H](CC(=O)O)C(=O)N[C@@H](C)C(=O)N[C@@H](CCCNC(=N)N)C(=O)N[C@@H](C)C(=O)N[C@@H](CC(=O)O)C(=O)N[C@@H](C)C(=O)N[C@@H](CCCNC(=N)N)C(=O)N[C@@H](C)C(=O)N[C@@H](CC(=O)O)C(=O)N[C@@H](C)C(=O)NCC(=O)NCC(=O)NCC(=O)N[C@@H](C)C(=O)N[C@@H](C)C(=O)N1CCC[C@H]1C(=O)N[C@H](C(=O)NCC(=O)NCC(=O)NCC(=O)N[C@@H](Cc1c[nH]cn1)C(=O)N[C@@H](CCCCN)C(N)=O)C(C)C` [RADA-GHK, Ac-(Arg-Ala-Asp-Ala)4-Gly-Gly-Gly-Ala-Ala-Pro-Val-Gly-Gly-Gly-His-Lys-NH2], the “storage modulus G’” value in the data set “Rheology of hydrogels” (cone-plate, frequency sweep 0.01–100 rad s−1 at 2.5% strain (Fig. 9 legend: 1%), mean of three repeats) was determined as 550 Pa. Besides, in “Rheology of hydrogels” (strain sweep, ω = 6.28 rad/s), the “shear strain above which the gel behaves like a liquid (G” > G’)” value was “above 30%”. The “heat stability of β-sheet structure (rank)” value in data set [1] (CD scans at different temperatures) was “highest”. Also, the “temperature of first disruption of the β-sheets” value in data set [1] (CD, [θ]196 nm as function of temperature 4–100 °C, gel 10 mg/ml in water, 37 °C 4 h, diluted to 0.20 mg/ml, decrease of molar ellipticity) was ~65 °C. Further, in data set [1] (CD, [θ]196 nm vs temperature, 0.20 mg/ml in water, above 100 °C curve extrapolated, 4PL fit), the “transition temperature (half β-conformation, half disordered)” value was 94 °C. Moreover, the “cytotoxicity (LDH), slight effect” value in the data set on 46BR.1N fibroblasts was “ca. 15%”. Moreover, the “identified fragments of peptides after elastase digestion (most abundant MS signals)” value in data set [2] (fragment Ac-(RADA)4-GGG-AAPV-COOH) is listed as “Ac-(RADA)4-GGG-AAPV-COOH”; in data set [2] (fragment NH2 -GHK-NH2) it was “NH2 -GHK-NH2”. Further, the “main / predominant fragments of elastase digestion” value in data set [2] (pH 7.5 buffer, HPLC, mass spectrometry) is “Gly^26His^27Lys^28”. Besides, the “wound closure on day 7” value in data set [3] (BALB/c female mice, 6.0 mm punch dorsal wounds, 10 µL 1% hydrogel topically daily for five days, n = 6, SD) stood at 41.8 ± 16.1%. For the same compound, the “wound healing compared to RADA16-I” value in data set [3] (BALB/c mice, 1% hydrogel topically, day 2 up to day 14) is listed as “Accelerated wound healing”. Moreover, the “fibre thickness (TEM)” value in data set [4] is “about 3 nm”.
